Data: patent US20030171408A1, “Therapeutic method of delivering a medicament to avoid irritating effects on membranes of user” (priority 2002, published 2003)

Assays:
[1] = cited from earlier work
[2] = powder nasal spray, encapsulated in starch microspheres
Method: A subject is administered nicotine by means of a powder nasal spray. The nicotine is prepared as the diacesulfamate and is encapsulated in starch microspheres.

[3] = oral inhaler, water solution
Method: A subject is administered nicotine by means of an oral inhaler. The nicotine is prepared as the diacesulfamate and is prepared in water solution.

[4] = metered nasal spray 0.4 mg nicotine equivalent
Method: A subject who was an addicted smoker was provided a metered nasal spray delivering 0.4 mg of nicotine equivalent in form of nicotine diacesulfamate. The nicotine salt was dissolved in water without any other additive ingredients.

[5] = nasal, single doses of one mg, in man; cited from earlier work

With CC1=CC(=O)NS(=O)(=O)O1 [Acesulfamic acid, 6-Methyl-1,2,3-Oxathiazin-4(3H)1,2,2-dioxide H] as the compound, how does the “solubility in alcohol and non-polar solvents” value ([1]; alcohol and non-polar solvents) read?
The value was “soluble”.

And the solubility in water ([1]; water)?
Its solubility in water is “only sparingly soluble”.

Which “burning feeling on administration” value [2] does the source give for CC1=CC(=O)NS(=O)(=O)O1.CC1=CC(=O)NS(=O)(=O)O1.CN1CCC[C@H]1c1cccnc1 [nicotine diacesulfamate] here?
The value was “No burning feeling is noted”.

And the “relief from cravings to smoke” value [2]?
The value was “relief from the cravings to smoke soon after use”.

What about the “burning feeling in buccal area, throat or lungs” value [3] of the same compound?
Its value is “No burning feeling is noted”.

And the “relief from craving to smoke” value [3]?
The value was “relief from craving to smoke soon after use”.

What about the “relief from desire to smoke” value ([4]; addicted smoker, dissolved in water, once in each nostril) of the same compound?
Its value is “relief from desire to smoke within two minutes”.

And the “taste and feelings in the nostril” value ([4]; in water)?
Its value is “not unpleasant, but distinctive”.

And the “irritation to nasal mucosa, throat or lungs” value ([4]; in water, once in each nostril)?
The value was “No report was made of any irritation to nasal mucosa, nor to the throat or lungs”.

For CN1CCCC1c1cccnc1 (stereo not shown) [nicotine], which “time to maximum concentration” value [5] is on record?
The value was at most 10 min.
